# Measurements reported in publication PMC12764431 (Nature immunology, 2025).
# Assays:
# [1] = tested on: dendritic cells (DCs) pulsed with InsB9–23; test: MHC-II; assay type: cell-based, NOD mice; settings: InsB9–23-pulsed DCs, TNFα or TNFα plus NAC; three independent peptidomes
# [2] = tested on: MIN6 cells and B6 mouse islets; test: Granule-based antigen presentation; assay type: cell-based; settings: MIN6 cells stimulated with TNFα; for S5 T cell responses to crinosome fractions from TNFα-treated MIN6 cells: with or without glutathione or TUDCA, n = 6
# [3] = tested on: InsB9–23(C19S)-specific T cell hybridomas; test: Responses of InsB9–23; assay type: cell-based, NOD mice; settings: C3.g7 cells pulsed with peptides, 0.3 μM; n = 6 hybridomas
# [4] = tested on: MHC-II; settings: cited from earlier work
# [5] = tested on: soluble I-A^g7 molecules; test: Biochemical competitive binding assay; set-up: species or system mouse; settings: soluble I-A^g7, Extended Data Fig. 3c,d, n = 2
# [6] = tested on: 9B9 CD4^+ T cell hybridoma; test: Response of the 9B9 CD4+ T cell hybridoma to synthetic peptides; assay type: cell-based, NOD mice; settings: serially diluted peptide, IL-2 production
# [7] = tested on: S5 CD4^+ T cell hybridoma; test: Response of the S5 CD4+ T cell hybridoma to synthetic peptides; assay type: cell-based, NOD mice; settings: serially diluted peptide, IL-2 production
# [8] = tested on: islet and pancreatic lymph node cells; test: IFNγ ELISPOT, antigen recall of pooled islet and pancreatic lymph node cells; assay type: cell-based; settings: cells pooled from islets and pancreatic lymph nodes of 8-week-old female NOD mice, peptide 1 μM; n = 4
# [9] = tested on: MIN6 cells and B6 mouse islets; test: β cell death and total granule protein after tunicamycin; assay type: cell-based; settings: tunicamycin 2 h, followed by extensive washing
molecule,measurement,setting,value
"CC(=O)N[C@@H](CS)C(=O)O [NAC, N-acetylcysteine]",InsB9–23(C19S) peptide in the DC I-A^g7 peptidome,[1],reduced
"C[C@H](CCC(=O)NCCS(=O)(=O)O)[C@H]1CC[C@H]2[C@@H]3[C@@H](O)C[C@@H]4C[C@H](O)CC[C@]4(C)[C@H]3CC[C@]12C [TUDCA, tauroursodeoxycholic acid]",S5 T cell responses to crinosome fractions from TNFα-treated MIN6 cells,[2],inhibited
N[C@@H](CCC(=O)N[C@@H](CS)C(=O)NCC(=O)O)C(=O)O [glutathione],S5 T cell responses to crinosome fractions from TNFα-treated MIN6 cells,[2],inhibited
EALYLVSGE [Nested InsB13-21(C19S)],Recognition of register peptides by InsB9–23(C19S)-specific T cell hybridomas,[3],only a few recognizing
GDLQTLALEVARE [CP1d],MHC-II binding relative to the native C-peptide,[4],~ 45 fold
InsB12–20(C19A): surrogate InsB12–20 peptide with C19A,Binding to I-A^g7 compared to native counterparts,[5],similarly reduced binding
SHLVEALALVCGERG [InsB9–23(Y16A)],Response of the 9B9 T cell hybridoma to peptide,[6],did not respond
same,Response of the S5 T cell hybridoma to peptide,[7],failed to respond at any peptide concentration
SHLVEALYLVCGERG [InsB9–23],IFNγ production by ELISPOT during antigen recall,[8],induced IFNγ production
SHLVEALYLVSGERG [InsB9–23(C19S)],Response of the 9B9 T cell hybridoma to peptide,[6],minimal reactivity
same,IFNγ production by ELISPOT during antigen recall,[8],triggered even higher responses
same,Response of the S5 T cell hybridoma to peptide,[7],responded robustly
TNFα,InsB9–23(C19S) peptide in the DC I-A^g7 peptidome,[1],appeared
same,"Native InsB9–23 levels (9B9 T cell responses), TNFα-treated MIN6 cells",[2],did not affect
same,S5 T cell responses to crinosome fractions from TNFα-treated MIN6 cells,[2],significant increase
tunicamycin,β cell death,[9],did not cause β cell death
